Results on 10 molecules are retold here after patent US10828315B2 (Madrigal Pharmaceuticals, Inc., priority 2013, dated 2020).

The subject of series [1] is Human H3122 NSCLC cells. Briefly: Cell viability assay (CellTiter-Glo) in H3122 cells (Example 4). Conditions: NCI-H3122. The series is classed as cell-based. The procedure: Human H3122 NSCLC cells were obtained and grown in RPMI in the presence of fetal bovine serum (10%), 2 mM L-glutamine and antibiotics (100 IU/ml penicillin and 100 μg/ml streptomycin, Sigma Aldrich.) Cells were maintained at 37° C., 5% CO2 atmosphere.
Cell viability was measured using the CellTiter-Glo® assay (Promega). In brief, cells were plated in 96-well plates in triplicate at optimal seeding density (determined empirically) and incubated at 37° C., 5% CO2 atmosphere for 24 hr prior to the addition of drug or vehicle (0.3% DMSO) to the culture medium. At the end of the assay, CellTiter-Glo was added to the wells per manufacturer's recommendation, shaken for two minutes and incubated for 10 minutes at room temperature. Luminescence (0.1 sec) was measured with a Victor II microplate reader (Perkin Elmer) and the resulting data were used to calculate cell viability, normalized to vehicle control.
Cells as described above were treated with exemplary SDC-TRAPs and their viability determined as above as well. The following table illustrates the results.

A short description of series [2]: Artificial membrane permeability assay (PAMPA). The note with it: incubation 5 h, first table. Background: In PAMPA a lipid-coated filter parts donor from acceptor wells.
Procedure: Pre-coated PAMPA plates were warmed to room temperature for at least 30 minutes prior to adding assay components.
Stock solutions were prepared with the SDC-TRAP molecules to be tested. In order to make a working solution, either 50 μL of 100 μM Stock in DMSO+950 μL of PBS or 50 μL of 200 μM stock was added to 96 deep well plate, resulting in a 5 μM final concentration or a 10 μM final concentration, respectively. 3000 μL of the working solution containing each compound to be tested was added to the appropriate well of a donor PAMPA plate. 200 μL of PBS was added into the corresponding wells of an acceptor PAMPA plates.
The acceptor plate was lowered onto the donor plate and allowed to incubate for five hours. After five hours, a 50 μL aliquot was removed from each well of each plate and added into a new 96 deep-well plate.
100 μL of methanol containing an internal standard was added to each aliquot and analyzed by LC/MS.
In order to calculate the permeability for each SDC-TRAP molecule and the control molecules, the following formula was used:
For series [3], the system named is H 3211 NSLC cells. Briefly: IC50 of continuous and pulsed exposure (Examples 9 and 10). Format: cell-based. Conditions: three replicate columns.
The subject of series [4] is HER2. The series can be described thus: HER2 degradation in BT-474 cells (Example 3, Methods 1 and 2). The series is classed as cell-based, human. From the text: This example illustrates how a HER2 degradation assay may be used as a test to determine and select Hsp90-targeting moieties suitable for use in SDC-TRAPs of the invention, and further illustrates the ability of SDC-TRAPs to target cells preferentially expressing Hsp90. Such a test may further be used to determine the Hsp90 binding ability of SDC-TRAPs of the invention, as well as through competitive binding assays and cell-based Hsp90 client protein degradation assays known in the art.
After treatment, each cytoplasmic sample is prepared from 1×10^6 cells by incubation of cell lysis buffer (#9803, Cell Signaling Technology) on ice for 10 minutes. The resulting supernatant used as the cytosol fractions is dissolved with sample buffer for SDS-PAGE and run on a SDS-PAGE gel, blotted onto a nitrocellulose membrane by using semi-dry transfer. Non-specific binding to nitrocellulose is blocked with 5% skim milk in TBS with 0.5% Tween at room temperature for 1 hour, then probed with anti-HER2/ErB2 mAb (rabbit IgG, #2242, Cell Signaling) and anti-Tubulin (T9026, Sigma) as housekeeping control protein. HRP-conjugated goat anti-rabbit IgG (H+L) and HRP-conjugated horse anti-mouse IgG (H+L) are used as secondary Ab (#7074#7076, Cell Signaling) and LumiGLO reagent, 20× Peroxide (#7003, Cell Signaling) is used for visualization. The Hsp90 client protein HER2 is degraded when cells are treated with Hsp90-targeting moieties or SDC-TRAPs of the invention.
BT-474 cells are plated in the interior 60 wells of a 96 well black clear bottom plate (20,000 cells/well) in DMEM medium, with DMEM media in the surrounding 36 wells, and incubated at 37° C. with 5% CO2 overnight. On the second day, concentration response curve source plates are produced (10 point, 3-fold dilution of compounds in DMSO) followed by a 1:30 dilution in an intermediate dilution plate containing DMEM. Compound is transferred from the intermediate plate to the cell plate at a dilution of 1:10. The cells are then incubated at 37° C. with 5% CO2 for 24 hours.
Cells are then fixed in 4% phosphate-buffered paraformaldehyde for 30 minutes at room temperature and then permeabilized by washing five times with 0.1% Triton X-100 in PBS for 5 minutes at room temperature on a shaker. […] Cells are washed five times with 0.1% Tween-20 in PBS for 5 minutes at room temperature on a shaker and incubated with fluorescently-labeled secondary antibody (LI-COR, #926-32211) diluted 1:1000 in blocking buffer, and DRAQ5 nuclear stain (Biostatus Limited, # DRAQ5) diluted 1:10,000, at room temperature on a shaker for 1 hour. Cells are washed 5 times with 0.1% Tween-20 in PBS for 5 minutes at room temperature on a shaker and imaged on a LI-COR Odyssey imaging station. The raw data is normalized to DRAQ5 and the HER2 EC50 is calculated using XLfit™.

Series [5] deals with HER2. The series can be described thus: HER2 degradation assay with BT-474 cell line (Example 12, FACS). The series is classed as cell-based, human.
The conditions of series [6]: Tissue Distribution Data for SDC-TRAP-0045.
Procedure: Using the 10 mM stock solutions of the SDC-TRAP molecule and its Hsp90i binding moiety and effector moiety in DMSO, spiking solutions were prepared at 0.025, 0.05, 0.1, 0.5, 1, 5, 10, 50, 100, 250, and 500 μM in DMSO. 5 μL of each spiking solution was added to a 96-deep well plate.
Quality control standards were prepared from 5 μL of 0.1, 1, and 10 μM calibration standard spiking solution added in triplicate into 96-deep well plate and adding 50 μL of matrix (plasma or homogenized tumor).
To prepare test samples, test plasma was diluted as needed using blank plasma.
Tumor samples were pulverized in liquid nitrogen, weighed, and homogenized in PBS at 5× volume to sample weight. 50 μL of unknown plasma or homogenized tumor sample was mixed with 5 μL of DMSO. The samples were extracted by precipitating calibration standards, QC standards, and unknown samples with 200 μL of internal standard solution. The samples were mixed by vortex at room temperature for approximately 1.5 minutes, then centrifuge at 2-8° C. 150 μL of supernatant was collected and 25 μL of water added. Samples were mixed and analyzed by LC-MS/MS.
Samples of plasma, heart and tumor were excised from a euthanized mouse, homogenized in PBS at 5 times tissue weight and diluted in 5 μL DMSO/50 μL sample. Prior to analysis, 55 μL samples and calibration standards were precipitated in 200 μL methanol in 96-well plates. Samples were mixed on a vortex mixer for 1.5 minutes at 1500 rpm at room temperature, then centrifuged at 4400 rpm for 10 minutes at 8° C. 150 μL of each supernatant was transferred to a well of a new 96-well plate, and 25 μL of water was added and mixed with the sample. […] For the analysis of samples from female SCID mice, a gradient of solvent A (water/0.1% formic acid) and B (acetonitrile/0.1% formic acid) was used as in Table 2 below.
Various SDC-TRAP molecules and appropriate controls were administered to mice and after various time points the plasma and tumor concentration of these molecules was determined.
Series [7] in a line: Stability in cell culture media (Example 18). Conditions: for Media (5 μM) % Remaining 1 h (37° C.)*: sum of both peaks.
A short description of series [8]: Mouse plasma stability protocol, up to 1 h (Examples 16-18). Conditions: for % Remaining (1 h): % Remaining of parent after 1 h incubation in mouse plasma at 37° C. (10 μM); for Mouse (10 μM) % Remaining 1 h (37° C.)*: sum of both peaks.
[9] abbreviates: read-out: IC50, 72h-continuous, 7.5 × 10^3 cells/well.

Where two headings read alike, the source gives them in different places. Where only a bound is given, the exact number is not on record here.

In series [1], `CC(C)c1cc(-c2nnc(O)n2-c2ccc3c(ccn3CCN(C)C(=O)c3ccc(CCc4c[nH]c5nc(N)[nH]c(=O)c45)cc3)c2)c(O)cc1O` [SDC-TRAP-0019, 4-(2-(2-amino-4-oxo-4,7-dihydro-3H-pyrrolo[2,3-d]pyrimidin-5-yl)ethyl)-N-(2-(5-(3-(2,4-dihydroxy-5-isopropylphenyl)-5-hydroxy-4H-1,2,4-triazol-4-yl)-1H-indol-1-yl)ethyl)-N-methylbenzamide] had an IC50 of 0.393 µM.
With `CC(C)c1cc(-c2nnc(O)n2-c2ccc3c(ccn3CCN(C)C(=O)CCCC(=O)Nc3cccc4c3CN(C3CCC(=O)NC3=O)C4=O)c2)c(O)cc1O` (centres unmarked) [SDC-TRAP-0018, N1-(2-(5-(3-(2,4-dihydroxy-5-isopropylphenyl)-5-hydroxy-4H-1,2,4-triazol-4-yl)-1H-indol-1-yl)ethyl)-N5-(2-(2,6-dioxopiperidin-3-yl)-1-oxoisoindolin-4-yl)-N1-methylglutaramide], the IC50 in series [1] was 0.62 µM. For the same molecule, the “Mass Retention” value in series [2] is reported as 14.7%.
Consider `CCc1c2c(nc3ccc(OCC(=O)NCCn4ccc5cc(-n6c(O)nnc6-c6cc(C(C)C)c(O)cc6O)ccc54)cc13)-c1cc3c(c(=O)n1C2)COC(=O)C3(O)CC` (centres unmarked) [SDC-TRAP-0023, 2-((4,11-diethyl-4-hydroxy-3,14-dioxo-3,4,12,14-tetrahydro-1H-pyrano[3′,4′:6,7]indolizino[1,2-b]quinolin-9-yl)oxy)-N-(2-(5-(3-(2,4-dihydroxy-5-isopropylphenyl)-5-hydroxy-4H-1,2,4-triazol-4-yl)-1H-indol-1-yl)ethyl)acetamide], for which the IC50 is 0.137 µM in series [1] and below 0.012 µM in series [3] (setting [9]).
On to `CCc1c2c(nc3ccc(OCC(=O)N(C)CCn4ccc5cc(-n6c(O)nnc6-c6cc(C(C)C)c(O)cc6O)ccc54)cc13)-c1cc3c(c(=O)n1C2)COC(=O)C3(O)CC` (centres unmarked) [SDC-TRAP-0027, 2-((4,11-diethyl-4-hydroxy-3,14-dioxo-3,4,12,14-tetrahydro-1H-pyrano[3′,4′:6,7]indolizino[1,2-b]quinolin-9-yl)oxy)-N-(2-(5-(3-(2,4-dihydroxy-5-isopropylphenyl)-5-hydroxy-4H-1,2,4-triazol-4-yl)-1H-indol-1-yl)ethyl)-N-methylacetamide], for which the IC50 worked out at 1.35 µM in series [1] and 0.984 µM in series [3] (72 h, read-out: IC50, 72h-continuous, 7.5 × 10^3 cells/well).
As to `CCc1c2c(nc3ccc(OC(=O)N4CCN(c5ccc(-n6c(O)nnc6-c6cc(C(C)C)c(O)cc6O)cc5)CC4)cc13)-c1cc3c(c(=O)n1C2)COC(=O)C3(O)CC` (centres unmarked) [SDC-TRAP-0045, 4,11-diethyl-4-hydroxy-3,14-dioxo-3,4,12,14-tetrahydro-1H-pyrano[3′,4′:6,7]indolizino[1,2-b]quinolin-9-yl 4-(4-(3-(2,4-dihydroxy-5-isopropylphenyl)-5-hydroxy-4H-1,2,4-triazol-4-yl)phenyl)piperazine-1-carboxylate], the IC50 in series [4] and in series [5] was 0.464 µM throughout. Further, the “Plasma Conc.” value is 689 µM in series [6] (Time (h) 0.083); 1.88 µM in series [6] (Time (h) 6); 0.141 µM in series [6] (Time (h) 12); 0.0113 µM in series [6] (Time (h) 24); “BQL” in series [6] (Time (h) 48). In addition, the “Tumor Conc.” value in series [6] (Time (h) 0.083) is on record as 4.30 nmol/g of tissue; in series [6] (Time (h) 6), 2.55 nmol/g of tissue; in series [6] (Time (h) 12) it was 1.13 nmol/g of tissue; in series [6] (Time (h) 24), “BQL”; in series [6] (Time (h) 48), “BQL”. In addition, the “Tumor/Plasma Ratio” value in series [6] (Time (h) 0.083) is on record as 0.00624; in series [6] (Time (h) 6), 1.35; in series [6] (Time (h) 12) it was 8.02. For the same molecule, the “Media (5 μM) % Remaining 19 h (37° C.)” value in series [7] stood at 50%. Further, the “Media (5 μM) % Remaining 1 h (37° C.)§” value in series [7] (data from single parent peak) is recorded as 72%. For the same molecule, the “Media (5 μM) % Remaining 1 h (37° C.)*” value in series [7] is 77%. Also, in series [8], the “% Remaining (1 h)” value amounted to 45.0%. Besides, in series [8] (mouse plasma), the “% Remaining (1 h, 37° C.)” value came to 45%. Besides, in series [8] (mouse plasma, data from single parent peak), the “Mouse (10 μM) % Remaining 1 h (37° C.)§” value is 34%. Also, the “Mouse (10 μM) % Remaining 1 h (37° C.)*” value in series [8] (mouse plasma) came to 45%.
In the case of `CC(C)c1cc(-c2nnc(O)n2-c2ccc3c(ccn3CCOCCNC(=O)c3ccc(CCc4c[nH]c5nc(N)[nH]c(=O)c45)cc3)c2)c(O)cc1O` [SDC-TRAP-0020, 4-(2-(2-amino-4-oxo-4,7-dihydro-3H-pyrrolo[2,3-d]pyrimidin-5-yl)ethyl)-N-(2-(2-(5-(3-(2,4-dihydroxy-5-isopropylphenyl)-5-hydroxy-4H-1,2,4-triazol-4-yl)-1H-indol-1-yl)ethoxy)ethyl)benzamide], in series [1], the IC50 came out at 1.74 µM.
Turning to `CC(C)c1cc(-c2nnc(O)n2-c2ccc3c(ccn3CCC(=O)Nc3cccc4c3CN(C3CCC(=O)NC3=O)C4=O)c2)c(O)cc1O` (centres unmarked) [SDC-TRAP-0017, 3-(5-(3-(2,4-dihydroxy-5-isopropylphenyl)-5-hydroxy-4H-1,2,4-triazol-4-yl)-1H-indol-1-yl)-N-(2-(2,6-dioxopiperidin-3-yl)-1-oxoisoindolin-4-yl)propanamide], in series [1], the IC50 is above 3 µM.
On the same count and under the same terms, for `CC(C)c1cc(-c2nnc(O)n2-c2ccc3c(ccn3CCN(C)C(=O)NCC(=O)Nc3cccc4c3CN(C3CCC(=O)NC3=O)C4=O)c2)c(O)cc1O` (centres unmarked) [SDC-TRAP-0021, 2-(3-(2-(5-(3-(2,4-dihydroxy-5-isopropylphenyl)-5-hydroxy-4H-1,2,4-triazol-4-yl)-1H-indol-1-yl)ethyl)-3-methylureido)-N-(2-(2,6-dioxopiperidin-3-yl)-1-oxoisoindolin-4-yl)acetamide] the value was 0.717 µM.
Consider `CC(C)c1cc(-c2nnc(O)n2-c2ccc3c(ccn3CCOCCNC(=O)CCCC(=O)Nc3cccc4c3CN(C3CCC(=O)NC3=O)C4=O)c2)c(O)cc1O` (centres unmarked) [SDC-TRAP-0015, N1-(2-(2-(5-(3-(2,4-dihydroxy-5-isopropylphenyl)-5-hydroxy-4H-1,2,4-triazol-4-yl)-1H-indol-1-yl)ethoxy)ethyl)-N5-(2-(2,6-dioxopiperidin-3-yl)-1-oxoisoindolin-4-yl)glutaramide], for which the IC50 in series [1] came out at 1.27 µM; in series [3] (setting [9]), 0.796 µM.
`CCc1c2c(nc3ccc(OC(=O)N(C)CCCCN4CCN(Cc5ccc(-n6c(O)nnc6-c6cc(C(C)C)c(O)cc6O)cc5)CC4)cc13)-c1cc3c(c(=O)n1C2)COC(=O)C3(O)CC` (centres unmarked) [SDC-TRAP-0044, 4,11-diethyl-4-hydroxy-3,14-dioxo-3,4,12,14-tetrahydro-1H-pyrano[3′,4′:6,7]indolizino[1,2-b]quinolin-9-yl (4-(4-(4-(3-(2,4-dihydroxy-5-isopropylphenyl)-5-hydroxy-4H-1,2,4-triazol-4-yl)benzyl)piperazin-1-yl)butyl)(methyl)carbamate] had an IC50 in series [4] of 0.602 µM. The IC50 in series [5] amounted to 0.602 µM. Moreover, in series [7], the “Media (5 μM) % Remaining 19 h (37° C.)” value came to 41% and the “Media (5 μM) % Remaining 1 h (37° C.)*” value stood at 50%. Besides, the “% Remaining (1 h)” value in series [8] worked out at 60.6%. Besides, in series [8] (mouse plasma), the “% Remaining (1 h, 37° C.)” value came out at 61% and the “Mouse (10 μM) % Remaining 1 h (37° C.)*” value was found to be 61%.
